Measurements taken from PubChem BioAssay (NCI).
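Method: 48-hour compound exposure of cells in 96-well plates, five concentrations, linear interpolation of endpoints. TGI: total growth inhibition.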

Legend:
Assay in all cases: NCI anticancer screen, dose series, 48 h
[1] = test system: COLO 205 colon
[2] = test system: SNB-75 CNS
[3] = test system: NCI-H460 lung
[4] = test system: EKVX NSCLC
[5] = test system: RXF 393 renal
[6] = test system: CAKI-1 renal
[7] = test system: SF-539 CNS
[8] = test system: SK-MEL-28 melanoma
[9] = test system: U251 CNS
[10] = test system: UACC-257 melanoma
[11] = test system: SR leukemia
[12] = test system: OVCAR-4 ovarian
[13] = test system: MALME-3M melanoma
[14] = test system: SK-OV-3 ovarian
[15] = test system: K-562 leukemia
[16] = test system: A549 NSCLC
[17] = test system: NCI-H522 lung
[18] = test system: OVCAR-8 ovarian
[19] = test system: HL-60(TB) leukemia
[20] = test system: M14 melanoma
[21] = test system: ACHN renal
[22] = test system: NCI-H226 lung
[23] = test system: 786-0 renal
[24] = test system: KM12 colon
[25] = test system: A498 renal
[26] = test system: LOX IMVI melanoma
[27] = test system: MDA-MB-231 breast
[28] = test system: HCT-15 colon
[29] = test system: SW-620 colon
[30] = test system: NCI/ADR-RES ovarian
[31] = test system: UACC-62 melanoma
[32] = test system: MCF7 breast
[33] = test system: HOP-92 NSCLC
[34] = test system: OVCAR-3 ovarian
[35] = test system: CCRF-CEM leukemia
[36] = test system: MDA-MB-435
[37] = test system: SK-MEL-2 melanoma
[38] = test system: SK-MEL-5 melanoma
[39] = test system: PC-3 prostate
[40] = test system: HCC-2998 colon
[41] = test system: HS 578T breast
[42] = test system: MOLT-4 leukemia
[43] = test system: HOP-62 NSCLC
[44] = test system: HCT-116 colon
[45] = test system: T-47D breast
[46] = test system: SNB-19 CNS
[47] = test system: OVCAR-5 ovarian
[48] = test system: IGROV1 ovarian
[49] = test system: SN12C renal
[50] = test system: DU-145 prostate
[51] = test system: TK-10 renal
[52] = test system: NCI-H23 lung
[53] = test system: HT29 colon
[54] = test system: SF-295 CNS
[55] = test system: SF-268 CNS
[56] = test system: MDA-N

Measured: TGI

COc1cc2c(cc1OC)C1CCc3ccccc3CN1CC2 (stereo unspecified)
> 100 µM: [1] | [2] | [3] | [4] | [5] | [6] | [7] | [8] | [9] | [10] | [11] | [12] | [13] | [14] | [15] | [16] | [17] | [18] | [19] | [20] | [21] | [22] | [23] | [24] | [25] | [26] | [27] | [28] | [29] | [30] | [31] | [32] | [33] | [34] | [35] | [36] | [37] | [38] | [39] | [40] | [41] | [42] | [43] | [44] | [45] | [46] | [47] | [48] | [49] | [50] | [51] | [52] | [53] | [54] | [55] | [56]
